Test results as given in patent US9776972B2, “Pyrazole derivatives as arginine methyltransferase inhibitors and uses thereof” (priority 2013, dated 2017).
Structures can show the parent of a compound that is named as a salt.

system: mono-methyl arginine in RKO cells; assay: RKO Methylation Assay, In Cell Western (ICW) for mono-methyl arginine and DNA content; type: cell-based; conditions: Homo sapiens, RKO, 72 h, RKO cells, 72 hours, mono-methyl arginine, percent activation; single experiment or average of multiple experiments; read-out: EC30 (In Cell Western data, Numerical)
Summary of the method: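 RKO cells treated with compound for 72 hours at 37 °C, then methanol-fixed and stained overnight at 4 °C with anti-mono-methyl arginine antibody, plus DRAQ5 for DNA. Signal ratio from 700 and 800 nm infrared scans normalized to DMSO (minimum) and 20 μM reference compound (maximum); EC30 from triplicate curves.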

Compound | EC30 [µM]
CCCc1ccc(-c2n[nH]cc2CN(C)CCNC)cc1 [Compound 20] | 0.18
CNCCN(C)Cc1c[nH]nc1-c1ccc(O)cc1 [Compound 27] | 12.3
CNCCN(C)Cc1c[nH]nc1-c1ccc(CO)cc1 [Compound 28] | 10.2
CNCCN(C)Cc1c[nH]nc1-c1ccc(Oc2ccccc2)cc1 [Compound 37] | 0.05
CCN(CCN)Cc1c[nH]nc1-c1ccc(F)cc1 [Compound 62] | > 20
CCCN(CCN)Cc1c[nH]nc1-c1ccc(F)cc1 [Compound 63] | > 20
CN(CCN)Cc1c[nH]nc1-c1ccc(C#N)cc1 [Compound 68] | 0.775
CNCCN(C)Cc1c[nH]nc1-c1cc(C(C)C)cc(C(C)C)c1 [Compound 229, N^1-((3-(3,5-diisopropylphenyl)-1H-pyrazol-4-yl)methyl)-N^1,N^2-dimethylethane-1,2-diamine] | 8.71
CNCCN(C)Cc1c[nH]nc1-c1ccc(Oc2cccc(OC)c2)cc1 [Compound 230] | 0.206
CNCCN(C)Cc1c[nH]nc1-c1ccc(Oc2cccc(F)c2)cc1 [Compound 231] | 0.23
CNCCN(C)Cc1c[nH]nc1-c1ccc(Oc2ccccc2)c(C(=O)NC)c1 [Compound 232] | 7.14
CNCCN(C)Cc1c[nH]nc1-c1ccc(Oc2ccccc2)c(C(=O)N(C)C)c1 [Compound 233] | 17.3
CC(C)Cc1cccc(-c2n[nH]cc2CN(C)CCN)c1 [Compound 235] | 1.56
CNCCN(C)Cc1c[nH]nc1-c1ccc(OCCCO)cc1 [Compound 236] | 0.852
CNCCN(C)Cc1c[nH]nc1-c1ccc(Oc2ccccc2F)cc1 [Compound 237] | 0.114
CNCCN(C)Cc1n[nH]cc1-c1ccc(Oc2cccc(OC)c2)cc1 [Compound 239] | 1.28
CNCCN(C)Cc1n[nH]cc1-c1ccc(Oc2ccccc2)c(C(=O)NC)c1 [Compound 240] | 6.45
CNCCN(C)Cc1n[nH]cc1-c1ccc(Oc2ccccc2)c(C(=O)N(C)C)c1 [Compound 241] | 10.4
CNCCN(C)Cc1n[nH]cc1-c1cc(C(C)C)cc(C(C)C)c1 [Compound 242] | > 20
CNCCN(C)Cc1cn(C)nc1-c1ccc(OC(C)C)cc1 [Compound 243, N^1-((3-(4-isopropoxyphenyl)-1-methyl-1H-pyrazol-4-yl)methyl)-N1,N2-dimethylethane-1,2-diamine] | 0.809
CNCCN(C)Cc1cn(Cc2ccncc2)nc1-c1ccc(OC(C)C)cc1 [Compound 245] | 0.627
CNCCN(C)Cc1cn(Cc2ccccn2)nc1-c1ccc(OC(C)C)cc1 [Compound 247] | 8.26
CNCCN(C)Cc1cn(CC(=O)OC)nc1-c1ccc(OC(C)C)cc1 [Compound 248] | > 20
CNCCN(C)Cc1cn(CC(N)=O)nc1-c1ccc(OC(C)C)cc1 [Compound 251] | 18.7

Compound | EC30 [µM]
CNCCN(C)Cc1cn(C2CCCCC2)nc1-c1ccc(OC(C)C)cc1 [Compound 256] | > 20
C=C(C)C(=O)Nc1cccc(-c2[nH]ncc2CN(C)CCNC)c1 [Compound 257] | > 20
C=CC(=O)Nc1cccc(-c2[nH]ncc2CN(C)CCNC)c1 [Compound 258] | > 20
CN(CCN)Cc1c[nH]nc1-c1ccc(Oc2ccccc2F)cc1 [Compound 259] | 0.532
CNCCN(C)Cc1c[nH]nc1-c1cc(OC(C)C)cc(C(C)C)c1 [Compound 260] | 6.07
CNCCN(C)Cc1c[nH]nc1-c1ccc(Oc2cccc(C#N)c2)cc1 [Compound 261] | 0.327
CNCCN(C)Cc1c[nH]nc1-c1ccc(Oc2cccc(C(C)C)c2)cc1 [Compound 262] | 1.23
CNCCN(C)Cc1c[nH]nc1-c1cc(Cl)c(OC(C)C)c(Cl)c1 [Compound 265, N^1-((3-(3,5-dichloro-4-isopropoxyphenyl)-1H-pyrazol-4-yl)methyl)-N^1,N^2-dimethylethane-1,2-diamine] | 0.503
CNCCN(C)Cc1nn(C)cc1-c1ccc(OCCCOC)cc1 [Compound 266] | > 20
CNCCN(C)Cc1n[nH]cc1-c1ccc(Oc2cccc(C#N)c2)cc1 [Compound 267] | 0.694
CNCCN(C)Cc1n[nH]cc1-c1ccc(Oc2cccc(C(=O)NC)c2)cc1 [Compound 268] | 3.69
CNCCN(C)Cc1n[nH]cc1-c1ccc(Oc2cccc(F)c2)cc1 [Compound 270] | 1.06
CNCCN(C)Cc1n[nH]cc1-c1cc(CC(C)C)cc(CC(C)C)c1 [Compound 271] | > 20
CNCCN(C)Cc1n[nH]cc1-c1cc(OC(C)C)cc(C(C)C)c1 [Compound 272] | > 20
CNCCN(C)Cc1n[nH]cc1-c1cc(Cl)c(OC(C)C)c(Cl)c1 [Compound 273] | 1.3
CNCCN(C)Cc1c[nH]nc1-c1ccc(Oc2ccccc2C(=O)NC)cc1 [Compound 274] | 3.04
CNCCN(C)Cc1n[nH]c(C)c1-c1ccc(OC(C)C)cc1 [Compound 275] | 0.122
CNCCN(C)Cc1c(-c2ccc(OCCCOC)cc2)cnn1C [Compound 276] | > 20
CNCCN(C)Cc1n[nH]cc1-c1ccc(Oc2cccc(C(C)C)c2)cc1 [Compound 277] | > 20
CNCCN(C)Cc1n[nH]cc1-c1ccc(Oc2ccccc2F)cc1 [Compound 279, N^1-((4-(4-(2-fluorophenoxy)phenyl)-1H-pyrazol-3-yl)methyl)-N^1,N^2-dimethylethane-1,2-diamine] | 0.637
CC(C)Cc1cc(-c2n[nH]cc2CN(C)CCN)ccc1F [Compound 280] | 1.72
CNCCN(C)Cc1c[nH]nc1-c1cc(CC(C)C)cc(CC(C)C)c1 [Compound 281] | 3.52
CNCCN(C)Cc1c[nH]nc1-c1cc(Cl)c(OCC2CC2)c(Cl)c1 [Compound 282] | 0.383

same assay, conditions: Homo sapiens, RKO, 72 h, read-out: EC30 (In Cell Western data, Numerical, μM)

Compound | EC30 [µM]
CNCCN(C)Cc1c[nH]nc1-c1ccc(F)cc1 [Compound 2, N^1-((3-(4-fluorophenyl)-1H-pyrazol-4-yl)methyl)-N^1,N^2-dimethylethane-1,2-diamine] | 1.12
CNCCN(C)Cc1cn(Cc2cccnc2)nc1-c1ccc(OC(C)C)cc1 [Compound 246] | 1.08
CNCCN(C)Cc1cnn(CC(=O)OC)c1-c1ccc(OC(C)C)cc1 [Compound 249] | 9.53
CNCCN(C)Cc1cn(CC(=O)O)nc1-c1ccc(OC(C)C)cc1 [Compound 250] | > 20
CCn1ncc(CN(C)CCNC)c1-c1ccc(OC(C)C)cc1 [Compound 252] | 1.82
CNCCN(C)Cc1cn(CCOC)nc1-c1ccc(OC(C)C)cc1 [Compound 253, N1-((3-(4-isopropoxyphenyl)-1-(2-methoxyethyl)-1H-pyrazol-4-yl)methyl)-N1,N2-dimethylethane-1,2-diamine hydrochloride] | 8
CNCCN(C)Cc1cn(C2CCC2)nc1-c1ccc(OC(C)C)cc1 [Compound 254, N1-((1-cyclobutyl-3-(4-isopropoxyphenyl)-1H-pyrazol-4-yl)methyl)-N1,N2-dimethylethane-1,2-diamine hydrochloride] | 2.24
CNCCN(C)Cc1cnn(C2CCCC2)c1-c1ccc(OC(C)C)cc1 [Compound 255] | 2.66

same assay, conditions: RKO cells, 72 hours, mono-methyl arginine, percent activation; class symbols

Compound | EC30 (In Cell Western data)
CNCCN(C)Cc1c[nH]nc1-c1ccccc1C(F)(F)F [Compound 38] | C (“C” indicates an EC30 ≧ 12.01 μM)
CNCCN(C)Cc1c[nH]nc1-c1ccc(C(=O)c2ccccc2)cc1 [Compound 45] | A (“A” indicates an EC30 ≦ 3.00 μM)
CNCCN(C)Cc1c[nH]nc1-c1ccccc1-c1ccccc1 [Compound 46] | C (“C” indicates an EC30 ≧ 12.01 μM)
CNCCN(C)Cc1c[nH]nc1-c1ccc(OC)cc1OC [Compound 55] | C (“C” indicates an EC30 ≧ 12.01 μM)
CNCCN(C)Cc1c[nH]nc1-c1c(OC)cccc1OC [Compound 56] | C (“C” indicates an EC30 ≧ 12.01 μM)

same assay, conditions: RKO cells, 72 hours, mono-methyl arginine, percent activation; single experiment or average of multiple experiments

Compound | EC30 (In Cell Western data, Numerical, μM) [µM]
CNCCN(C)Cc1c[nH]nc1-c1ccc(C(=O)c2ccccc2)cc1 [Compound 45] | 0.454
